Source: ChEMBL document CHEMBL5728673, “Substituted imidazopyridine compounds as inhibitors of indoleamine 2,3-dioxygenase and/or tryptophan-2,3-dioxygenase” (2021)

Key:
[1] = molecular target: Indoleamine 2,3-dioxygenase 1 (Homo sapiens, UniProt P14902); experiment: (§1) Biochemical Coupled Assay: Recombinant human IDO or TDO was incubated in 50 mM KPO4 (pH 7.0), 0.5 mM EGTA, 0.5 mM EDTA, 0.05% Triton™ X100, 20 mM ascorbate, 10 μM methylene blue, 500 U/ml catalase, 50 μg/ml KynB (kynurenine formamidase). TDO assays were carried out in the presence of 330 μM L-tryptophan, while IDO assays had the addition of 45 μM L-tryptophan. After incubation for 17 minutes at room temperature the reactions were stopped by the addition of Erhlich's reagent and incubated at room temperature for 5 minutes before the fluorescence was read.
[2] = molecular target: Tryptophan 2,3-dioxygenase (Homo sapiens, UniProt P48775); experiment: as §1
Tryptophan 2,3-dioxygenase, sequence (P48775 whole entry): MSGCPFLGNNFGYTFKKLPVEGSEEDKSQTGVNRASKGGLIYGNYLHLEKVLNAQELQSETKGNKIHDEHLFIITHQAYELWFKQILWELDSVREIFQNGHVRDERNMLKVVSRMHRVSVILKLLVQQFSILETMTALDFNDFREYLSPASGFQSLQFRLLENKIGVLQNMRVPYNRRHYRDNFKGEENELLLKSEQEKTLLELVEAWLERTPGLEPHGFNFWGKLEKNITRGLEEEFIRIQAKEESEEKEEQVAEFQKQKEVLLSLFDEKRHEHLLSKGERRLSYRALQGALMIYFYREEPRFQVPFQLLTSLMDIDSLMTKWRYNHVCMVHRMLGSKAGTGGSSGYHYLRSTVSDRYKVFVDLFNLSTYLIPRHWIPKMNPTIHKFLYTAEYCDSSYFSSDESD

Indoleamine 2,3-dioxygenase 1, sequence (P14902 whole entry): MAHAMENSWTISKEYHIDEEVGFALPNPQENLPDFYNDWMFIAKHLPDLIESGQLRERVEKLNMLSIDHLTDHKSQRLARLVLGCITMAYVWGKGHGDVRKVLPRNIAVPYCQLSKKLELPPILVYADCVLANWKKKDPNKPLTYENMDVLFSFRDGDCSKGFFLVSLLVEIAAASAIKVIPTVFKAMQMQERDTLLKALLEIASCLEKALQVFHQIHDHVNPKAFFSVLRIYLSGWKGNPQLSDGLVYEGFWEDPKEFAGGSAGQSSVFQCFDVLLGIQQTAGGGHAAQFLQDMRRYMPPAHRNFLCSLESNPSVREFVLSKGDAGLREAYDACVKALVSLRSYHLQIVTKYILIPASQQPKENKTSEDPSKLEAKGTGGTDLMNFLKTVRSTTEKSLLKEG

IC50 [1]: 148 nM | IC50 [2]: 1590 nM
Structure (SMILES): CC1(C)CN(c2cc(Cl)cc3cncn23)CCC12NC(=O)NC2=O (configuration not stated)
